{
  "source": "patent US20030079241A1",
  "about": "“Premalignant, serially-transplantable breast tissue lines and uses thereof” (priority 2001, published 2003)",
  "system": "HPO line A",
  "test": "Effect of tamoxifen on tumor development in mice with bilateral implants of HPO line A",
  "format": "in vivo",
  "details": "mice receiving bilateral implants of HPO line A; after 15 weeks; all control vehicle mice developed bilateral tumors",
  "protocol": "The instant invention also provides a method of using the above described premalignant serially-transplantable, hyperplastic outgrowth (HPO) breast tissue lines to screen for new chemopreventative agents against breast cancer. The serially-transplantable breast tissue lines are implanted into the inguinal mammary fat pads of syngeneic, non-transgenic recipient mice. Putative chemopreventative agents are administered to a subset of the implanted mice.\nBreast tissue lines A, B, C, D, and E from zone 4 all express high levels of estrogen receptor, which is also expressed in human premalignant breast cells. This is important for testing chemopreventive agents that rely on this receptor. Moreover, the effects of tamoxifen on the development of tumors in mice receiving bilateral implants of HPO line A were examined.",
  "data": [
    {"smiles": "CC/C(=C(\\c1ccccc1)c1ccc(OCCN(C)C)cc1)c1ccccc1", "note": "[tamoxifen]", "values": [
      {"measurement": "development of tumors", "result": "None of the mice receiving tamoxifen developed tumors after 15 weeks"}
    ]}
  ]
}
